Experimental data taken from patent US20160279135A1, “THERAPIES FOR TREATING MYELOPROLIFERATIVE DISORDERS” (Gilead Sciences, Inc., priority 2013, published 2016).
Several values for one entry are separate records, joined by “and”; a condition that tells them apart may be missing. Identical values can stand only once. Like-named read-outs stand apart in the source and are kept apart here.

Tests used:
p-AKT Ser473 [1] = test: Western blot of AKT phosphorylation in BaF3/MPL cells; assay type: cell-based; details: 2 h, then TPO 50 ng/mL 10 min, vs vehicle
Protocol: (§1) In addition, Compound B was examined for the effects on the PI3K signaling pathway by determining the levels of AKT and S6 phosphorylation with or without TPO activation. Two cell lines, BaF3/MPL and UT-7/TPO sensitive or responsive to TPO activation were used. The cells were starved (i.e. growing on medium having less FBS) in […] FBS/RPMI for two hours before treated with 0.1, 1.0, or 2.0 μM of Compound B or vehicle (0.1% DMSO in RPMI) for 2 hours at 37° C. To examine the TPO-activated phosphorylation, the cells were then treated or activated with 50 ng/mL of human recombinant TPO (Peprotech) for 10 minutes at 37° C. The TPO activation or treatment may reflect the conditions in diseased cells as the PI3K pathway is activated by TPO in myelofibrosis. After treating with compound and/or TPO, the cells were collected, lysed by lysis buffer (Cell Signaling), separated by SDS-PAGE, and analyzed by the Western blot using antibodies specific to p-AKT Ser473 or pS6 Ser235/236 (Cell Signaling). The phosphorylation levels in treated cells were calculated and compared to those of untreated cells (i.e. vehicle as negative control).

p-AKT Ser473 [2] = test: Western blot of AKT phosphorylation in UT-7/TPO cells; assay type: cell-based; details: 2 h, then TPO 50 ng/mL 10 min, vs vehicle
Protocol: as §1

p-AKT Ser473 [3] = test: flow cytometry of AKT phosphorylation in CD34+ progenitor cells from MF patients; assay type: cell-based, human; details: 2.0 μM
Protocol: (§2) In this example, PBMCs were isolated from whole blood of myelofibrosis (MF) patients who had not received treatments (i.e. naïve patients) or received ruxolitinib (i.e. rux-treated patients). The cells were treated with 0.02, 0.2, or 2.0 μM of Compound B or vehicle (0.1% DMSO in 0.1% FBS/RPMI) for 2 hours at 37° C. The cells were then fixed, permeabilized, and stained for FACS analysis. Antibodies specific to p-AKT Ser473 and pS6RP Ser235/236 were used to detect AKT phosphorylation (p-AKT) and S6RP phosphorylation (p-S6RP) in CD34^+/CD3^−/CD14^−/CD19/CD66^− (BD Biosciences) gated cells using flow cytometry. The percentage of basal (i.e. untreated with TPO) AKT and S6RP phosphorylation were normalized to vehicle control (i.e. “no TPO” values shown in Table 2). A two-tailed paired t-test (GraphPad Prism) was used to calculate p-values. Values of p<0.05 were considered significant.
(§3) Also, PBMC cells were treated with Compound B and with TPO as described above. The percentage of TPO-activated AKT and S6RP phosphorylation were normalized to those of TPO-treated vehicle. […] Also, the inhibition to PI3K signaling was dose-dependent to Compound B.
(§4) Similar studies were conducted with PI3K inhibitors Compounds C and D. PBMC from MF patients had received ruxolitinib (rux) and MF patient had received Compound A. The cells were treated with Compounds C or D at 0, 20.0, 200.0, 2000.0 nM for 2 hours at 37° C. Cells were treated with TPO for 10 minutes. The percentage of basal p-AKT and p-S6RP levels were normalized to vehicle control and those of TPO-treated were normalized to TPO-treated vehicle control. The PI3K inhibitors Compounds C and D had the chemical names of (S)-2-(1-((9H-purin-6-yl)amino)ethyl)-6-fluoro-3-phenylquinazolin-4(3H)-one and (S)-2,4-diamino-6-(((5-chloro-8-fluoro-4-oxo-3-(pyridine-3-yl)-3,4-dihydroquinazolin-2-yl)(cyclopropyl)methyl)amino)pyrimidine-5-carbonitrile, respectively.

p-S6RP = test: flow cytometry of p-S6RP in TPO-stimulated CD34+ cells from MF patients on chronic ruxolitinib (Example 8); assay type: cell-based, human; details: for percentage of the p-S6RP levels: 2 h, then TPO 50 ng/mL, one value per patient, TPO vehicle = 100
Protocol: (§5) In this study, PBMCs were isolated from the whole blood from five MF patients receiving chronic ruxolitinib treatment (rux 1-rux 5). The cells were treated with either vehicle, ruxolitinib, and/or Compound B for 2 hours then stimulated with TPO (50 ng/mL) for 10 minutes. Ruxolitinib at the dose of 1 or 20 nM and Compound B at the dose of 45, 200, or 700 nM were used.
(§6) The treated cells were then fixed, permeabilized and stained for FACS analysis using FACSCalibur analyzed using BD FACSDiva software.

p-STAT5 = test: flow cytometry of p-STAT5 in TPO-stimulated CD34+ cells from MF patients on chronic ruxolitinib (Example 8); assay type: cell-based, human; details: 2 h, then TPO 50 ng/mL, one value per patient, TPO vehicle = 100
Protocol: as §5, §6

Pfeiffer cells = test: CellTiter-Glo cell viability of Pfeiffer cells with IL6; assay type: cell-based; details: Homo sapiens, 96 h, n=4, read-out: percentage of viable Pfeiffer cells, AVG; for viability at […]: 74 nM Compound B; for viability at 0.2 µM: 200 nM Compound B; for viability at 0.421 µM: 421 nM Compound B
Protocol: Next, Pfeiffer cells were treated with IL6 (0 or 3 ng/mL), Compound A (0, 136, 272, or 695 nM), and/or Compound B (0, 74, 200, or 421 nM) (n=4 per group) for 96 hours.
Cellular viability was determined using the CellTiter-Glo Luminescent Cell Viability Assay (Promega). The percentage of viable cells was normalized to the groups that were not treated with Compound A or Compound B, and standard deviation was calculated.

pS6RP Ser235/236 = test: flow cytometry of S6RP phosphorylation in CD34+ progenitor cells from MF patients; assay type: cell-based, human; details: for normalized percentage of TPO-activated S6RP phosphorylation (p-S6RP): 2.0 μM, then TPO, one value per patient, TPO-treated vehicle = 100
Protocol: as §2, §3, §4

Q: Which results are given for `CC[C@H](Nc1ncnc2[nH]cnc12)c1nc2cccc(F)c2c(=O)n1-c1ccccc1` [Compound B, (S)-2-(1-((9H-purin-6-yl)amino)propyl)-5-fluoro-3-phenylquinazolin-4(3H)-one]?
A: reduced p-AKT levels (p-AKT Ser473 [1]; 0.1 μM): 51%; reduced p-AKT levels (p-AKT Ser473 [1]; 1.0 μM): 64%; reduced p-AKT levels (p-AKT Ser473 [2]; 0.1 μM): 11%; reduced p-AKT levels (p-AKT Ser473 [2]; 1.0 μM): 44%; reduced p-AKT levels (p-AKT Ser473 [2]; 2.0 μM): 55%; normalized percentage of TPO-activated AKT phosphorylation (p-AKT) (p-AKT Ser473 [3]; then TPO, progenitor cells of rux-treated MF patients, one value per patient, TPO-treated vehicle = 100): 40% and 29% and 35% and 16% (2×); normalized percentage of p-AKT (p-AKT Ser473 [3]; progenitor cells from Compound A-treated MF patients, one value per subject, column 0 = 100): 24% and 55% and 30%; percentage of the p-S6RP levels (p-S6RP; Compound B 45 nM): 82% and 58% and 49% and 74% and 36%; percentage of the p-S6RP levels (p-S6RP; Compound B 200 nM): 62% and 46% and 38% and 63% and 33%; percentage of the p-S6RP levels (p-S6RP; Compound B 700 nM): 46% and 48% and 32% and 55% and 17%; inhibition at 0.045 µM (p-S6RP; Homo sapiens, Compound B 45 nM, TPO-stimulated cells vs vehicle, all five patients, read-out: p-S6RP levels decreased (inhibited) by): 40%; inhibition at 0.2 µM (p-S6RP; Homo sapiens, Compound B 200 nM, TPO-stimulated cells vs vehicle, all five patients, read-out: p-S6RP levels decreased (inhibited) by): 52%; inhibition at 0.7 µM (p-S6RP; Homo sapiens, Compound B 700 nM, TPO-stimulated cells vs vehicle, all five patients, read-out: p-S6RP levels decreased (inhibited) by): 60%; percentage of the p-STAT5 levels (p-STAT5; Compound B 45 nM): 92% (2×) and 85% and 95% and 83%; percentage of the p-STAT5 levels (p-STAT5; Compound B 200 nM): 93% and 83% and 91% and 72% and 90%; percentage of the p-STAT5 levels (p-STAT5; Compound B 700 nM): 88% and 86% and 82% and 106% and 78%; viability at […] (Pfeiffer cells; IL6 0 ng/mL): 72%; viability at […] (Pfeiffer cells; IL6 3 ng/mL): 95%; viability at 0.2 µM (Pfeiffer cells; IL6 0 ng/mL): 63%; viability at 0.2 µM (Pfeiffer cells; IL6 3 ng/mL): 91%; viability at 0.421 µM (Pfeiffer cells; IL6 0 ng/mL): 54%; viability at 0.421 µM (Pfeiffer cells; IL6 3 ng/mL): 83%; normalized percentage of TPO-activated S6RP phosphorylation (p-S6RP) (pS6RP Ser235/236; progenitor cells of naïve MF patients): 23% and 45%; normalized percentage of TPO-activated S6RP phosphorylation (p-S6RP) (pS6RP Ser235/236; progenitor cells of rux-treated MF patients): 21% and 45% and 36% and 20% and 31%; basal p-S6RP levels (pS6RP Ser235/236; 0.02-2.0 μM, 2 h, no TPO, MF progenitor cells vs untreated, data not shown): reduced levels
